Tests used:
[1] = tested on: HEPKp 3 dimensional skin models; test: Filaggrin release from HEPKp 3D skin models (ELISA); type: cell-based, human; conditions: 0.05%, after 8 days, vs medium control
Excerpt: Induction of Moisturizing Factor Filaggrin in 3D Skin Models Three dimensional skin models derived from human epidermal keratinocyte progenitors (HEPKp) and were systemically treated with test substances in CnT-PR-3D medium for 4 to 9 days. The filaggrin release was detected in the media by ELISA, Enzyme-linked Immunosorbent Assay Kit for filaggrin, Cloud-Clone Corp.

[2] = tested on: ex vivo human skin models; test: Epidermal filaggrin, involucrin and cytokeratin 14 immunostaining ex vivo; type: cell-based; conditions: various concentrations, vs vehicle (DMSO)
Procedure: Ex Vivo Studies Ex vivo trials were done by Cutech Srl, Italy. Effects of described Lactobacillus strains on various parameters were analyzed in ex vivo skin models. Human skin from abdominal plastic surgery was used. Applications of heat inactivated bacteria suspensions were done systemically or topically, in formulation or solved in cell culture medium Tape stripping may be used. Concentrations and incubation times may vary. All data were processed in terms of mean, standard deviation and standard error of mean (SEM) for each treatment. Epidermal Filaggrin, Involucrin and Cytokeratin 14 For analyses, the models were immune-stained with the selected antibody filaggrin rabbit polyclonal [H-300], involucrin mouse monoclonal (SY5) and/or cytokeratin 14 (CK14) rabbit monoclonal (EPR17350). The amount of the antigen present in each slide was evaluated by estimating the intensity and the distribution of red dye within the epidermis. The obtained data were normalized for the length of the basal lamina.

[3] = tested on: S. aureus (DSM799/ATCC6538); test: Inhibition of Staphylococcus aureus growth (growth curves, OD 620 nm); type: cell-based; conditions: 0.1 and/or 0.05%, 16 h incubation
Procedure: Antimicrobial Effects of the Lactobacillus Strains Growth curves of various bacteria were measured photometrically at 620 nm. Inhibition of Staphylococcus aureus: 96-well MTP were prepared according to DIN58940-8 with autoclaved CASO medium (MERCK 1.05459) and test substances dissolved in DMSO or distilled water. The relevant wells were inoculated with S. aureus (DSM799/ATCC6538) using stock cultures maintained in 10% glycerin at −20° C. An inoculum of 1-6×10^6 cfu was added per well. Test substances were analyzed using three or four replicate wells during incubation at 37° C. for 16 hours. Growth curves were determined in each well via absorption at 620 nm using a Sunrise Photometer (Tecan, Austria) and Magellan Software. A concentration of 125 ppm farnesol and 4 ppm triclosan was used as positive control for growth inhibition, both pre-dissolved in DMSO (Merck 802912). For calculation, averages of detected absorptions were calculated and normalized with blank values. These OD values were plotted in function of time for graphical presentation.

[4] = tested on: HEPKp 3 dimensional skin models; test: Induction of hyaluronic acid in HEPKp 3D skin models (ELISA); type: cell-based, human; conditions: 0.005% in cell culture medium, 8 days treatment
Procedure: Induction of Hyaluronic Acid Human epidermal keratinocyte progenitors (HEPKp) generated 3d human skin models were cultivated and systemically treated with test substances. Briefly, defined concentrations of test substances were added to cell culture medium and each skin model was treated in cell culture dishes for up to 9 days at 37° C. and 5% CO2. After the treatment, collected supernatants were stored at −80° C. until further analyses. Viability of the cells was controlled by MTT standard method. Hyaluronic acid concentrations were measured by TECOmedical hyaluronic acid plus ELISA. The experimental procedure was performed as described in the provided protocol.

HaCaT keratinocytes [5] = test: IL-8 release after IL-1alpha stimulation of pre-treated keratinocytes (ELISA); type: cell-based, human; conditions: 48 h pre-treatment, then 30 ng/mL IL-1alpha for 8 h
Procedure: Anti-Inflammatory Effects of Lactobacillus plantarum HEAL 19 and HEAL 99 HaCaT keratinocytes were cultivated in 96-well plates using RPMI-A, medium sterile filtered with L-Glutamine, Capricorn, supplemented with 10% fetal calf serum (FCS), Capricorn. The plates were incubated at 37° C. and 5% CO2. After 24 hours starvation with cell culture medium (RPMI, 1% FCS) the cells were washed once. The anti-inflammatory substances/inactivated bacteria suspensions were suspended in starvation medium, applied and incubated for 24/48 h with parameters described above. […] To remove bacterial cells after pre-incubation all wells were washed with cell culture medium three times. IL-1alpha, Gibco, life technologies was dissolved in H2Odest, diluted in starvation medium and pipetted to wells, preferably at a concentration of 30 ng/mL. Alternatively, a heat inactivated Staphylococcus aureus (DSM799) suspension was used as pro-inflammatory agent in a concentration of 0.1 mg/mL-1 mg/mL dry mass. After 8 h incubation the supernatants were separated. All samples were stored at −80° C. until further analyses. IL-8 concentrations were measured with Human CXCL8/IL-8, DuoSet ELISA, Development Systems, R&D Systems. The experimental procedure was performed as described in the provided protocol. After calculating means of the duplicate/triplicate values and subtraction of the average zero standard optical density the calculation was done using four parameter logistic curve-fit for creating standard curves.

[6] = tested on: 3D epidermis model system for dry skin; test: Barrier improving efficacy on SDS damaged 3D skin models for dry skin (TEM of intercellular lipid lamellae); type: cell-based; conditions: 0.5% in a skin care formulation, topical, after SDS treatment
Procedure: Barrier Improving Efficacy on SDS Damaged 3D Skin Models for Dry Skin
For this purpose an in vitro study was performed on a 3D epidermis model system for dry skin. […] Disturbance of the epidermal barrier was measured as loss of intercellular lipid lamellae. The skin repair performance was determined by transmission electron microscopy (TEM) after treatment with L. plantarum HEAL 19 formulated in a cosmetic emulsion or placebo emulsion and then further cultivated to observe reformation of intercellular lipid lamellae.

ex vivo skin models = test: Skin barrier integrity (Rhodamine B) ex vivo after diesel particulate 1650b; type: cell-based, human; conditions: L. plantarum HEAL 19 formulation vs placebo, stimulation with diesel particulate (1650b)
Procedure: Ex vivo trials were done by Cutech Srl, Italy. Effects of described Lactobacillus strains on various parameters were analyzed in ex vivo skin models. Human skin from abdominal plastic surgery was used. Applications of heat inactivated bacteria suspensions were done systemically or topically, in formulation or solved in cell culture medium Tape stripping may be used. Concentrations and incubation times may vary. Skin Barrier Integrity (Rhodamine B) Ex vivo skin models have been treated topically with the L. plantarum strains before the application of the diesel particulate (i.e. 1650b). All skin samples have been incubated at 35° C., 5% CO2 and environmental humidity. At the end of the experimental phase the skin samples have been harvested stained with Rhodaminde B, cryo-fixed and cut at the cryostat for consequent image acquisition and analysis. The analysis of Rhodamine B fluorescence has been performed within two sections of the epidermis area for each skin model. Images have been analyzed by evaluating the fluorescence through Image-J application (NIH, USA).

HaCaT keratinocytes [7] = test: AMP gene expression in keratinocytes grown as mono-layer (real time PCR, TaqMan array); type: cell-based, human; conditions: for induction of β-Defensin 3, calculated RQ-value: RQ >2 = relevant induction
Procedure: Effects of Lactobacillus Strains on AMP Gene Expression in Keratinocytes Grown as Mono-Layer
AMP inductions were measured with real time PCR analysis using Taq-Man® Array fast 96-well plates.
HaCaT keratinocytes were cultivated in EpiLife medium, cascade Biologics, Gibco, incl. HKGS, Gibco, life technologies. Test substances were diluted in equal medium and added in a volume of 2 mL per well on 6-well plates. All samples are tested on 100% confluent cells incubated at 37° C., 5% CO2. After 24 h incubation time all samples were removed and cells washed twice with Dulbecco's Phosphate Buffered Saline with Ca and Mg, Capricorn. RNA isolation was performed using RNeasy® Mini Kit, Qiagen. The procedure has been done as describes in the RNeasy Mini Handbook.
Cells were lysed and precipitated with ethanol, the homogenate was washed three times using the spin column and the mRNA was eluated with purified water. Depending on the sample the procedure was slightly adjusted.
RNA concentration was measured using μCuvetteG 1.0 and BioPhotometer, Eppendorf by measuring the absorption at 260 nm. Control values, like E260/280 or E260/230 were calculated simultaneously. Transcription was done with a minimum of 0.5-1 μg RNA per sample.
Reverse transcription was done using high capacity RNA-to-cDNA Kit, Applied Biosystems. The procedure was based on the provided protocol. All samples were incubated in a PCR Thermocycler, Biometra running 60 min at 37° C. for reverse transcription, followed by 5 min at 95° C. (enzyme inactivation) and holding temperature at 4° C. in reaction room.
Quantitative Real-Time PCR was done using StepOne Plus Fast Real Time PCR Instrument, Applied Biosystems. Initial steps of the RT-PCR included a first heating phase holding for 20 s at 95° C., followed by 40 cycles of cDNA denaturation for 3 s at 95° C. and annealing/elongation at 60° C. for 30 s.
Analysis was done by 2-ACT Method—in detail: • 1. Standardization of Ct values with reference-gen (HPRT) ΔCTvaluegene=CTvaluegene−CTvalueReferencegene (HPRT) • 2. Subtraction of ACT-value of control sample (untreated) and ACT-value (treated) ΔΔCTvaluegene=ΔCTvaluetreated−ΔCTvaluecontrol • 3. Calculation of RQ-Ratio (relative quantification-value) RQ−value=2^−ΔΔCT
A RQ-Value of >2 was defined as relevant induction of a gene.

HaCaT keratinocytes [8] = test: IL-8 release after S. aureus stimulation of pre-treated keratinocytes (ELISA); type: cell-based, human; conditions: 0.25 mg/mL, 48 h pre-treatment
Procedure: Anti-Inflammatory Effects of Lactobacillus plantarum HEAL 19 and HEAL 99 HaCaT keratinocytes were cultivated in 96-well plates using RPMI-A, medium sterile filtered with L-Glutamine, Capricorn, supplemented with 10% fetal calf serum (FCS), Capricorn. The plates were incubated at 37° C. and 5% CO2. After 24 hours starvation with cell culture medium (RPMI, 1% FCS) the cells were washed once. The anti-inflammatory substances/inactivated bacteria suspensions were suspended in starvation medium, applied and incubated for 24/48 h with parameters described above. Dexamethasone in a concentration of 10 μM was used as positive control. To remove bacterial cells after pre-incubation all wells were washed with cell culture medium three times. IL-1alpha, Gibco, life technologies was dissolved in H2Odest, diluted in starvation medium and pipetted to wells, preferably at a concentration of 30 ng/mL. Alternatively, a heat inactivated Staphylococcus aureus (DSM799) suspension was used as pro-inflammatory agent in a concentration of 0.1 mg/mL-1 mg/mL dry mass. After 8 h incubation the supernatants were separated. All samples were stored at −80° C. until further analyses. IL-8 concentrations were measured with Human CXCL8/IL-8, DuoSet ELISA, Development Systems, R&D Systems. The experimental procedure was performed as described in the provided protocol. […]

[9] = tested on: ex vivo human skin models; test: IL-8 release of ex vivo human skin models after diesel particulate 1650b; type: cell-based; conditions: topical cosmetic formulation containing L. plantarum HEAL 19, stimulation with diesel particulate (1650b)
Procedure: Ex Vivo Studies Ex vivo trials were done by Cutech Srl, Italy. Effects of described Lactobacillus strains on various parameters were analyzed in ex vivo skin models. Human skin from abdominal plastic surgery was used. Applications of heat inactivated bacteria suspensions were done systemically or topically, in formulation or solved in cell culture medium Tape stripping may be used. Concentrations and incubation times may vary. All data were processed in terms of mean, standard deviation and standard error of mean (SEM) for each treatment. Anti-Inflammatory Effects Above described ex vivo human skin models have been used to verify the anti-inflammatory potential of the L. plantarum strains. The models were treatment with a L. plantarum HEAL 19 cosmetic emulsion followed by the application of the external noxious agent and pollutant 1650b, simulating air pollution. At a selected endpoint, the organ cell culture medium has been withdrawn from wells and analyzed for IL-8 using Deluxe set Human IL-8 of Biolegend®, Inc.

[10] = 0.05%, 24 h, gene arrays, induction defined as RQ-value >2
[11] = 0.1 and 0.05% tested, 24 h treatment, HaCaT

Q: Which results are given for “Lactobacillus plantarum HEAL 19 (DSM 15313) [L. plantarum HEAL 19]”?
A: filaggrin (FLG) release in medium [1]: 215%; cytokeratin 14 (CK14) production ([2]; topical treatment): increased; involucrin production ([2]; topical treatment): increased; filaggrin release/contents ex vivo [2]: concentration dependent induction; growth of S. aureus (optical density) [3]: growth inhibition effects; hyaluronic acid release compared to the medium control [4]: 145%; IL-8 release reduced to, compared to not pre-treated IL-1alpha control (HaCaT keratinocytes [5]; 0.25 mg/mL): 5.1%; repair performance (length of intercellular lipid lamellae) [6]: increased repair performance; rhodamine B penetration (skin barrier integrity) (ex vivo skin models): reduction of rhodamine B penetration; induction of β-Defensin 3, calculated RQ-value (HaCaT keratinocytes [7]; 0.0125% L. plantarum HEAL 19, 24 h, HaCaT): 2.3; gene expression of Calprotectin (HaCaT keratinocytes [7]; [10]): induced; gene expression of Lactotransferrin (HaCaT keratinocytes [7]; [10]): Significantly induced; gene expression of Peptidase inhibitor 3 (HaCaT keratinocytes [7]; [10]): Significantly induced; gene expression of Psoriasin (HaCaT keratinocytes [7]; [10]): Significantly induced; gene expression of RNase 7 (HaCaT keratinocytes [7]; [10]): Significantly induced; gene expression of Secretory leukocyte peptidase inhibitor (HaCaT keratinocytes [7]; [10]): Significantly induced; gene expression of β-Defensin 1 (HaCaT keratinocytes [7]; [10]): induced; gene expression of β-Defensin 3 (HaCaT keratinocytes [7]; [10]): Significantly induced; gene expression of β-Defensin 4 (HaCaT keratinocytes [7]; [10]): Significantly induced; induction of β-Defensin 3, calculated RQ-value (HaCaT keratinocytes [7]; 0.1% L. plantarum HEAL 19, 24 h, HaCaT): 243.6; IL-8 concentration in the medium reduced to, compared to only S. aureus stimulated control (HaCaT keratinocytes [8]): 31%; IL-8 detection in cell culture medium reduced to, compared to placebo control [9]: 75%

Q: For “Lactobacillus plantarum HEAL 99 (DSM 15316) [L. plantarum HEAL 99]”, which “filaggrin (FLG) release in medium” value [1] is on record?
A: 150%

Q: And the “hyaluronic acid release compared to the medium control” value [4]?
A: 115%

Q: And the “IL-8 release reduced to, compared to not pre-treated IL-1alpha control” value (HaCaT keratinocytes [5]; 0.1 mg/mL)?
A: 12.6%

Q: And the “induction of AMP coding gene Peptidase inhibitor 3” value (HaCaT keratinocytes [7]; [11])?
A: induced concentration dependently

Q: What about the “induction of AMP coding gene Phospholipase A2” value (HaCaT keratinocytes [7]; [11]) of the same compound?
A: induced concentration dependently

Q: What about the “induction of AMP coding gene RNase 7” value (HaCaT keratinocytes [7]; [11]) of the same compound?
A: induced concentration dependently

Q: And the “induction of AMP coding gene Secretory leukocyte peptidase inhibitor” value (HaCaT keratinocytes [7]; [11])?
A: induced concentration dependently

Q: What about the “induction of AMP coding gene β-Defensin 3” value (HaCaT keratinocytes [7]; [11]) of the same compound?
A: induced concentration dependently

Q: For `C[C@@H]1C[C@H]2[C@@H]3CCC4=CC(=O)C=C[C@]4(C)[C@@]3(F)[C@@H](O)C[C@]2(C)[C@@]1(O)C(=O)CO` [dexamethasone, reference compound], which “IL-8 release reduced to, compared to not pre-treated IL-1alpha control” value (HaCaT keratinocytes [5]; 30 μM, positive control) is on record?
A: 20.4%

From patent publication US12128129B2, “Lactobacillus plantarum for skin care” (SYMRISE AG, priority 2019, dated 2024)
